Test results: ChEMBL document CHEMBL2424512, “Discovery and biophysical characterization of 2-amino-oxadiazoles as novel antagonists of PqsR, an important regulator of Pseudomonas aeruginosa virulence” (J Med Chem, 2013)
Calls of active or inactive are those of the source. The rule behind the calls is not given here.

Columns and labels:
[1] = molecular target: T1, Transcriptional regulator MvfR (Pseudomonas aeruginosa PA14) (UniProt A0A072ZLE6); assay: Antagonist activity at Pseudomonas aeruginosa PA14 PqsR assessed as reduction of pyocyanin level by UHPLC-MS/MS analysis
T1 sequence (whole entry): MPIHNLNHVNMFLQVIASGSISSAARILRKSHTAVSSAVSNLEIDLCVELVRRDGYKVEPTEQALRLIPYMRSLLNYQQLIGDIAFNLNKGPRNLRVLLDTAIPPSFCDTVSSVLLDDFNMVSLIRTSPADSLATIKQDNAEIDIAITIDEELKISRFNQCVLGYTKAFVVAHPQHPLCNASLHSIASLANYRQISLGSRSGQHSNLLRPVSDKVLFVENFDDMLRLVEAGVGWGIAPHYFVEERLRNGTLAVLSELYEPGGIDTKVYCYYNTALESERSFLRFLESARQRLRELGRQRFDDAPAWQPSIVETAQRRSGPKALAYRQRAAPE

[2] = molecular target: T2, Transcriptional regulator MvfR (Pseudomonas aeruginosa PA14, UniProt A0A072ZLE6); assay: Antagonist activity at Pseudomonas aeruginosa PA14 PqsR expressed in Eschericia coli DH5-alpha assessed as inhibition of PQS-induced protein activation by beta-galactosidase reporter gene assay
T2 sequence (A0A072ZLE6 whole entry): T1 sequence (whole entry)

[3] = molecular target: T2, Transcriptional regulator MvfR; assay: Binding affinity to Pseudomonas aeruginosa PA14 biotinylated His6SUMO-tagged PqsR expressed in Eschericia coli BL21 (DE3) by surface plasmon resonance spectroscopic analysis
[4] = molecular target: T2, Transcriptional regulator MvfR; assay: Binding affinity to Pseudomonas aeruginosa PA14 biotinylated His6SUMO-tagged PqsR expressed in Eschericia coli BL21 (lamda DE3) by isothermal titration calorimetry
[5] = molecular target: T2, Transcriptional regulator MvfR; assay: Antagonist activity at Pseudomonas aeruginosa PA14 PqsR expressed in pqs gene-deficient Pseudomonas aeruginosa PA14 by beta-galactosidase reporter gene assay
[6] = system: Pseudomonas aeruginosa; assay: Antibacterial activity against Pseudomonas aeruginosa PA14 at 250 uM after 1 to 8 hrs by spectrophotometer analysis; format: functional, organism-based

SMILES	EC50 [2] [µM]	Kd [3] [µM]	Kd [4] [µM]	other results
CC(C)(C)c1ccc(C(=O)NO)cc1				inhibition [1]: Active
CCCCCCCc1cc(=O)c2cc(C(F)(F)F)ccc2[nH]1				inhibition [1]: Active
Nc1nnc(-c2cccc(Cl)c2)o1	26.7			
Nc1nnc(-c2ccc(Cl)cc2)o1		200		
FC(F)(F)c1cccc(-c2nnco2)c1	101		6.5	
N#Cc1cccc(-c2nnc(N)o2)c1	17.8			
Nc1nnc(-c2cccc(OC(F)(F)F)c2)o1	46.5			
NC(=O)c1ccc2ccccc2c1		0.8	1.8	
Cc1nnc(-c2cccc(C(F)(F)F)c2)o1			12.9	
FC(F)(F)c1cc(-c2cccs2)n[nH]1		10.7	8.5	
CC(C)(C)c1ccc(C(N)=O)cc1			0.9	
NC(=O)c1cccc(Br)c1		6.8	7.6	
Nc1nnc(-c2ccc(Cl)cc2)s1		4.5	3.7	
Nc1nnc(-c2cccc(Br)c2)o1	7.5			
Nc1cccc(Br)n1		6.8	10	
Cc1cccc(-c2nnc(N)o2)c1	57.8		12.4	
CC(C)(C)c1cccc(-c2nnc(N)o2)c1			3.1	
Nc1nnc(-c2cccc(C(F)(F)F)c2)o1	7.5		1.3	EC50 [5]: 38.5 µM; Activity [6]: inactive
COc1cccc(-c2nnc(N)o2)c1				inhibition [1]: inactive
CCCCCCCc1[nH]c2ccccc2c(=O)c1O		0.21		
